In ChEMBL document CHEMBL1208668, “Synthesis and biological evaluation of novel spiro 6-methoxytetralin-1,3'-pyrrolidine based organoselenocyanates against cadmium-induced oxidative and hepatic damage in mice” (2010):
Activity calls are given as the source filed them. The calls are words filed in the database; no cut-off is given here.

Key:
Mus musculus [1] = assay: Hepatoprotective activity against cadmium-induced oxidative damage in Swiss albino mouse assessed as inhibition of cadmium-induced SOD activity depletion at 3 mg/kg, po administered for 20 days concomitantly with cadmium; assay type: functional, organism-based; design: dose 3 mg/kg
Mus musculus [2] = assay: Hepatoprotective activity against cadmium-induced hepatic damage in Swiss albino mouse assessed as inhibition of cadmium-induced elevation in serum ALT level at 3 mg/kg, po administered for 20 days concomitantly with cadmium; assay type: functional, organism-based; design: dose 3 mg/kg
Mus musculus [3] = assay: Hepatoprotective activity against cadmium-induced oxidative damage in Swiss albino mouse assessed as inhibition of cadmium-induced CAT activity depletion at 3 mg/kg, po administered 7 days prior to first cadmium treatment followed by administration for 20 days concomitantly with cadmium; assay type: functional, organism-based; design: dose 3 mg/kg
Mus musculus [4] = assay: Hepatoprotective activity against cadmium-induced oxidative damage in Swiss albino mouse assessed as inhibition of cadmium-induced SOD activity depletion at 3 mg/kg, po administered 7 days prior to first cadmium treatment followed by administration for 20 days concomitantly with cadmium; assay type: functional, organism-based; design: dose 3 mg/kg
Mus musculus [5] = assay: Hepatoprotective activity against cadmium-induced oxidative damage in Swiss albino mouse assessed as inhibition of cadmium-induced GSH depletion at 3 mg/kg, po administered for 20 days concomitantly with cadmium; assay type: functional, organism-based; design: dose 3 mg/kg
Mus musculus [6] = assay: Hepatoprotective activity against cadmium-induced oxidative damage in Swiss albino mouse assessed as inhibition of cadmium-induced GST activity depletion at 3 mg/kg, po administered 7 days prior to first cadmium treatment followed by administration for 20 days concomitantly with cadmium; assay type: functional, organism-based; design: dose 3 mg/kg
Mus musculus [7] = assay: Hepatoprotective activity against cadmium-induced hepatic damage in Swiss albino mouse assessed as inhibition of cadmium-induced elevation in serum AST level at 3 mg/kg, po administered for 20 days concomitantly with cadmium; assay type: functional, organism-based; design: dose 3 mg/kg
Mus musculus [8] = assay: Hepatoprotective activity against cadmium-induced oxidative damage in Swiss albino mouse assessed as inhibition of cadmium-induced GST activity depletion at 3 mg/kg, po administered for 20 days concomitantly with cadmium; assay type: functional, organism-based; design: dose 3 mg/kg
Mus musculus [9] = assay: Renoprotective activity against cadmium-induced renal damage in Swiss albino mouse assessed as inhibition of cadmium-induced creatinine level change at 3 mg/kg, po administered for 20 days concomitantly with cadmium; assay type: functional, organism-based; design: dose 3 mg/kg
Mus musculus [10] = assay: Renoprotective activity against cadmium-induced renal damage in Swiss albino mouse assessed as inhibition of cadmium-induced BUN level […] at 3 mg/kg, po administered 7 days prior to first cadmium treatment followed by administration for 20 days concomitantly with cadmium; assay type: functional, organism-based; design: dose 3 mg/kg
Mus musculus [11] = assay: Hepatoprotective activity against cadmium-induced hepatic damage in Swiss albino mouse assessed as ratio of liver weight to body weight at 3 mg/kg, po administered 7 days prior to first cadmium treatment followed by administration for 20 days concomitantly with cadmium; assay type: functional
Mus musculus [12] = assay: Hepatoprotective activity against cadmium-induced oxidative damage in Swiss albino mouse assessed as inhibition of cadmium-induced GSH depletion at 3 mg/kg, po administered 7 days prior to first cadmium treatment followed by administration for 20 days concomitantly with cadmium; assay type: functional, organism-based; design: dose 3 mg/kg
Mus musculus [13] = assay: Renoprotective activity against cadmium-induced renal damage in Swiss albino mouse assessed as inhibition of cadmium-induced creatinine level change at 3 mg/kg, po administered 7 days prior to first cadmium treatment followed by administration for 20 days concomitantly with cadmium; assay type: functional, organism-based; design: dose 3 mg/kg
Mus musculus [14] = assay: Hepatoprotective activity against cadmium-induced hepatic damage in Swiss albino mouse assessed as ratio of liver weight to body weight at 3 mg/kg, po administered for 20 days concomitantly with cadmium; assay type: functional
Mus musculus [15] = assay: Hepatoprotective activity against cadmium-induced hepatic damage in Swiss albino mouse assessed as inhibition of cadmium-induced LPO level at 3 mg/kg, po administered for 20 days concomitantly with cadmium bt TBARS assay; assay type: functional, organism-based; design: dose 3 mg/kg
Mus musculus [16] = assay: Hepatoprotective activity against cadmium-induced hepatic damage in Swiss albino mouse assessed as inhibition of cadmium-induced LPO level at 3 mg/kg, po administered 7 days prior to first cadmium treatment followed by administration for 20 days concomitantly with cadmium; assay type: functional, organism-based; design: dose 3 mg/kg
Mus musculus [17] = assay: Renoprotective activity against cadmium-induced renal damage in Swiss albino mouse assessed as inhibition of cadmium-induced BUN level […] at 3 mg/kg, po administered for 20 days concomitantly with cadmium; assay type: functional, organism-based; design: dose 3 mg/kg
Mus musculus [18] = assay: Hepatoprotective activity against cadmium-induced hepatic damage in Swiss albino mouse assessed as inhibition of cadmium-induced elevation in serum ALT level at 3 mg/kg, po administered 7 days prior to first cadmium treatment followed by administration for 20 days concomitantly with cadmium; assay type: functional, organism-based; design: dose 3 mg/kg
Mus musculus [19] = assay: Hepatoprotective activity against cadmium-induced hepatic damage in Swiss albino mouse assessed as inhibition of cadmium-induced liver necrosis and inflammation at 3 mg/kg, po administered for 20 days concomitantly with cadmium; assay type: functional, organism-based; design: dose 3 mg/kg
Mus musculus [20] = assay: Hepatoprotective activity against cadmium-induced hepatic damage in Swiss albino mouse assessed as inhibition of cadmium-induced liver necrosis and inflammation at 3 mg/kg, po administered 7 days prior to first cadmium treatment followed by administration for 20 days concomitantly with cadmium; assay type: functional, organism-based; design: dose 3 mg/kg
Mus musculus [21] = assay: Hepatoprotective activity against cadmium-induced oxidative damage in Swiss albino mouse assessed as inhibition of cadmium-induced CAT activity depletion at 3 mg/kg, po administered for 20 days concomitantly with cadmium; assay type: functional, organism-based; design: dose 3 mg/kg
Mus musculus [22] = assay: Hepatoprotective activity against cadmium-induced hepatic damage in Swiss albino mouse assessed as inhibition of cadmium-induced elevation in serum AST level at 3 mg/kg, po administered 7 days prior to first cadmium treatment followed by administration for 20 days concomitantly with cadmium; assay type: functional, organism-based; design: dose 3 mg/kg

Row | SMILES | inhibition (Mus musculus [1]) | inhibition (Mus musculus [2]) | inhibition (Mus musculus [3]) | inhibition (Mus musculus [4]) | inhibition (Mus musculus [5]) | inhibition (Mus musculus [6]) | inhibition (Mus musculus [7]) | inhibition (Mus musculus [8]) | inhibition (Mus musculus [9]) | inhibition (Mus musculus [10]) | Ratio (Mus musculus [11]) | inhibition (Mus musculus [12]) | inhibition (Mus musculus [13]) | Ratio (Mus musculus [14]) | inhibition (Mus musculus [15]) | inhibition (Mus musculus [16]) | inhibition (Mus musculus [17]) | inhibition (Mus musculus [18]) | inhibition (Mus musculus [21]) | inhibition (Mus musculus [22]) | also measured
1 | COc1ccc2c(c1)CCCC21CC(=O)N(CCCCC[Se]C#N)C1=O (stereo not drawn) | inactive | Active | Active | inactive | Active | Active | Active | Active | inactive | Active | 0.0428 | Active | inactive | 0.047 | Active | Active | Active | Active | Active | Active | inhibition (Mus musculus [19]): Active; inhibition (Mus musculus [20]): Active
2 | COc1ccc2c(c1)CCCC21CC(=O)N(CC[Se]C#N)C1=O (stereo not drawn) | inactive | inactive |  | inactive | inactive | Active | Active | Active | inactive | Active |  | inactive | inactive | 0.0525 | Active | Active |  | inactive |  | Active | 
3 | COc1ccc2c(c1)CCCC21CC(=O)N(CCC[Se]C#N)C1=O (stereo not drawn) | inactive | inactive |  | inactive |  | Active | Active | Active | inactive | Active | 0.0474 |  | inactive | 0.0483 | Active | Active |  | inactive |  | Active | 
4 | COc1ccc2c(c1)CCCC21CC(=O)N(CCCC[Se]C#N)C1=O (stereo not drawn) | inactive | Active | Active | inactive | Active | Active | Active | Active | inactive | Active | 0.0466 | Active | inactive | 0.0487 | Active | Active | Active | Active | Active | Active | 
